Test results: ChEMBL document CHEMBL5291721, “A preclinical secondary pharmacology resource illuminates target-adverse drug reaction associations of marketed drugs” (Nat Commun, 2023)

Columns and labels:
Androgen receptor = molecular target: T1, Androgen receptor (Homo sapiens, UniProt P10275)
T1 sequence (P10275 whole entry): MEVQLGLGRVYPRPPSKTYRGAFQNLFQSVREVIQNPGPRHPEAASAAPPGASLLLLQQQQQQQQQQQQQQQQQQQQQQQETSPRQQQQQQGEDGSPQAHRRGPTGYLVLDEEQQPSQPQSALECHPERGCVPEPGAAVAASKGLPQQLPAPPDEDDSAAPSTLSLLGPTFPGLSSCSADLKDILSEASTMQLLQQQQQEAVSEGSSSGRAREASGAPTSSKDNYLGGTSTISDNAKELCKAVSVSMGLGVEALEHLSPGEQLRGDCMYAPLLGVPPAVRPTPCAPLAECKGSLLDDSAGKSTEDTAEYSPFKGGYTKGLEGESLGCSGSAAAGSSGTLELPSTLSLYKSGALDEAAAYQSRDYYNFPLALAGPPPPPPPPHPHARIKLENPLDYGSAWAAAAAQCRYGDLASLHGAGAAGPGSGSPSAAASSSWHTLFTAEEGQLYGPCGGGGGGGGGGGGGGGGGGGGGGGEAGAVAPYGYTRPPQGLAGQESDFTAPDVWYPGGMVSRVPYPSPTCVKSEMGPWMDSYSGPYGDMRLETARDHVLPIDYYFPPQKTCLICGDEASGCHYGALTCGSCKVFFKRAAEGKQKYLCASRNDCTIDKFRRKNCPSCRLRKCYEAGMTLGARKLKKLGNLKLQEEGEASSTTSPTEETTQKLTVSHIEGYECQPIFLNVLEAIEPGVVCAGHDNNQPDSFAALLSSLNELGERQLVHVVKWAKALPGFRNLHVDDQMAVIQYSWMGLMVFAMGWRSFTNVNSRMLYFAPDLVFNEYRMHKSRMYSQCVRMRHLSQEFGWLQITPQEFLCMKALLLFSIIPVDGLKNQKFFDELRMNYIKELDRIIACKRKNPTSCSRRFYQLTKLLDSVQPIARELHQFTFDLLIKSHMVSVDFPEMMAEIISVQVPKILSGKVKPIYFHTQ

[1] = molecular target: T2, Muscarinic acetylcholine receptor M1 (Homo sapiens, UniProt P11229); assay type: functional, cell-based
T2 sequence (P11229 whole entry): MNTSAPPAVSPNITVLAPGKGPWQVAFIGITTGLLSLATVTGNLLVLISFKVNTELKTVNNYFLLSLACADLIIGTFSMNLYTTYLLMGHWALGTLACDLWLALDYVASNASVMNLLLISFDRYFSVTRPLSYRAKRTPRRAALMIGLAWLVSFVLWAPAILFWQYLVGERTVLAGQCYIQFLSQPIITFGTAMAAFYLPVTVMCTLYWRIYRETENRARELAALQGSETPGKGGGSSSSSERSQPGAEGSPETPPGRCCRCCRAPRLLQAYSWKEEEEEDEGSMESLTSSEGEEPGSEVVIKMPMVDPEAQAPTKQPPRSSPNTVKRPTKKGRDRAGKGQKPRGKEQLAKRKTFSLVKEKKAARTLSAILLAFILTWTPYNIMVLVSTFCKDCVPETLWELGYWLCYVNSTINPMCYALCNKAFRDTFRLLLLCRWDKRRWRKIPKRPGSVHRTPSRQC

[2] = molecular target: Gamma-aminobutyric acid receptor subunit alpha-1/alpha-2/beta-2/gamma-2 (Homo sapiens, UniProt P14867+P18507+P47869+P47870); assay type: protein-complex assay
Chain of Gamma-aminobutyric acid receptor subunit alpha-1/alpha-2/beta-2/gamma-2 (P14867 whole entry): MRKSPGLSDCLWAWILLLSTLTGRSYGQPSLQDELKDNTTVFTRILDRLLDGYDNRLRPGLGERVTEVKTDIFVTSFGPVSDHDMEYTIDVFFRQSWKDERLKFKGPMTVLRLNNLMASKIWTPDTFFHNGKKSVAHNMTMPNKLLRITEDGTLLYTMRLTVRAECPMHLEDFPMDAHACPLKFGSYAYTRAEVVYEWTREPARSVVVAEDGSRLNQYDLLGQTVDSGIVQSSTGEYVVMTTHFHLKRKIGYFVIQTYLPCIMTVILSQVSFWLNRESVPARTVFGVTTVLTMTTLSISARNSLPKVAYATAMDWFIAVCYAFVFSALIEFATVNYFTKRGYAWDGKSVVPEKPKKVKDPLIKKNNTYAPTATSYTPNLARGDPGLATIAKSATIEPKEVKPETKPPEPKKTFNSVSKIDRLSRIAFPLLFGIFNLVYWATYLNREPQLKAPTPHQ
Chain of Gamma-aminobutyric acid receptor subunit alpha-1/alpha-2/beta-2/gamma-2 (P47870 whole entry): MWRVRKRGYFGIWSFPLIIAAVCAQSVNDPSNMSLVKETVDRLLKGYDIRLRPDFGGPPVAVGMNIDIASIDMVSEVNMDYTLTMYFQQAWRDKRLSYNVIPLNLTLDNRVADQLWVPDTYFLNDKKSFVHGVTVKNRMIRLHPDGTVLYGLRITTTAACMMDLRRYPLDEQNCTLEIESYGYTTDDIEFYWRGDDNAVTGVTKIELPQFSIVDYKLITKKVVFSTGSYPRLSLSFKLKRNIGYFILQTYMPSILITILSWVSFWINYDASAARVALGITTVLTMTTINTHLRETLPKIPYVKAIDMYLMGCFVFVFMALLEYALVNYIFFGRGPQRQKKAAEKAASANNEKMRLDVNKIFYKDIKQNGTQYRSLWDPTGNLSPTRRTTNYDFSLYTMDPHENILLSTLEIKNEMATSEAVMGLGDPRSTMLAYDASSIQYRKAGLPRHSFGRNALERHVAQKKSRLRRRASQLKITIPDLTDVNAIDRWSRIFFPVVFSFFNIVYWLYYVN
Chain of Gamma-aminobutyric acid receptor subunit alpha-1/alpha-2/beta-2/gamma-2 (P18507 whole entry): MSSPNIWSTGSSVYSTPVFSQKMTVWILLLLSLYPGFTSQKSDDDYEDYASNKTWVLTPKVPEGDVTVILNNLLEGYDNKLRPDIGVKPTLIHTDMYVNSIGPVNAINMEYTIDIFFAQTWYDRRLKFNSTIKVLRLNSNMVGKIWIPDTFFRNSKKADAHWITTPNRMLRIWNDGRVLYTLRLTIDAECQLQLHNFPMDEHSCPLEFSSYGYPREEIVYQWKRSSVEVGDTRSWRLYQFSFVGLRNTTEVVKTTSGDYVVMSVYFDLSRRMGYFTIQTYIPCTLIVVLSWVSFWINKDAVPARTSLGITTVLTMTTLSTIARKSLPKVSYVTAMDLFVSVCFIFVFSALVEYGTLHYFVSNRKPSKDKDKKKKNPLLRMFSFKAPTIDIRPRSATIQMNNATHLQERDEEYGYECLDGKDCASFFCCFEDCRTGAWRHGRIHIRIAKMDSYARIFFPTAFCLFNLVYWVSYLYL
Chain of Gamma-aminobutyric acid receptor subunit alpha-1/alpha-2/beta-2/gamma-2 (P47869 whole entry): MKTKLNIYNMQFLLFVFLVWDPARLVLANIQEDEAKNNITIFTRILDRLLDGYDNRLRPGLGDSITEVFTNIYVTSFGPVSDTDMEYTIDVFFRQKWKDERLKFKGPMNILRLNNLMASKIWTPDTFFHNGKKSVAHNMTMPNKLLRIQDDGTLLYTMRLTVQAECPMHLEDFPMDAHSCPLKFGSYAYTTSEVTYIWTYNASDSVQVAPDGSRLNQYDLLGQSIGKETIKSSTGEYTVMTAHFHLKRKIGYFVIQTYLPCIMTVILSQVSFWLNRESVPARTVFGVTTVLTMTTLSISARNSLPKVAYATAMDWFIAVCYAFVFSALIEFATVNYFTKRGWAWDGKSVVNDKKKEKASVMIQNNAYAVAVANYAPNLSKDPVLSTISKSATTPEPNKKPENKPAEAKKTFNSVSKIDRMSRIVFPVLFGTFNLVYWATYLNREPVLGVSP

Adenosine receptor A3 = molecular target: T3, Adenosine receptor A3 (Homo sapiens, UniProt P0DMS8)
T3 sequence (P0DMS8 whole entry): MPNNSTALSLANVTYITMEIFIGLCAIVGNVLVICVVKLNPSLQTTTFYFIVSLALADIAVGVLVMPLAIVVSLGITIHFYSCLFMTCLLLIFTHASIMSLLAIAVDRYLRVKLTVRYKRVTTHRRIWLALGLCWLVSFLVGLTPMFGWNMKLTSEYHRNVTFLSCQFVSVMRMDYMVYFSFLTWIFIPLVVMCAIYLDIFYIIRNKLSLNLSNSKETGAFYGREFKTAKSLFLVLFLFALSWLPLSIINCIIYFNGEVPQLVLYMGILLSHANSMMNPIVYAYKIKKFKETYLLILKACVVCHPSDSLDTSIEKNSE

Histamine H1 receptor = Histamine H1 receptor (Homo sapiens, UniProt P35367)
Chain of Histamine H1 receptor (P35367 whole entry): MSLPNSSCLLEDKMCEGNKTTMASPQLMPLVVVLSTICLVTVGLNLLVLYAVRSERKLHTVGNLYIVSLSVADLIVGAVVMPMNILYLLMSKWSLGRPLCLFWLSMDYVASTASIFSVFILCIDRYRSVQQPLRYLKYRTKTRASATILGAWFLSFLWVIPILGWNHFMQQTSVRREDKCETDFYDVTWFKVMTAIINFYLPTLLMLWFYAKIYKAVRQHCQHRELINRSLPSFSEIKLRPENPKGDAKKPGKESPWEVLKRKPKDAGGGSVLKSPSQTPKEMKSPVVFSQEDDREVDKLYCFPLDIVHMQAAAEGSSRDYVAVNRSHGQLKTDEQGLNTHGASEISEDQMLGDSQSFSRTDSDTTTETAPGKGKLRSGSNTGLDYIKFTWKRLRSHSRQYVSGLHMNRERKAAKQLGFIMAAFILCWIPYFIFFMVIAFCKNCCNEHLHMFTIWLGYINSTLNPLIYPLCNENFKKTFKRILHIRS

Melanocortin receptor 3 = Melanocortin receptor 3 (Homo sapiens, UniProt P41968)
Chain of Melanocortin receptor 3 (P41968 whole entry): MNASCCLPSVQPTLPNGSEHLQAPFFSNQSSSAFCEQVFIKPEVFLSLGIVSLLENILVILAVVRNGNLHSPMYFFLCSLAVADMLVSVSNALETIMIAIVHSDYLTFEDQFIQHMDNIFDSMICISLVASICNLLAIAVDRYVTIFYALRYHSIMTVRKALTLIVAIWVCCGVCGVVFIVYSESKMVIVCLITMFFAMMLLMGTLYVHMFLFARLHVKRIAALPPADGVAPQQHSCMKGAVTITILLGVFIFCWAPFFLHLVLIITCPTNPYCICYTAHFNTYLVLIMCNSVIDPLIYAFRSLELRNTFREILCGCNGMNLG

D(3) dopamine receptor = D(3) dopamine receptor (Homo sapiens, UniProt P35462)
Chain of D(3) dopamine receptor (P35462 whole entry): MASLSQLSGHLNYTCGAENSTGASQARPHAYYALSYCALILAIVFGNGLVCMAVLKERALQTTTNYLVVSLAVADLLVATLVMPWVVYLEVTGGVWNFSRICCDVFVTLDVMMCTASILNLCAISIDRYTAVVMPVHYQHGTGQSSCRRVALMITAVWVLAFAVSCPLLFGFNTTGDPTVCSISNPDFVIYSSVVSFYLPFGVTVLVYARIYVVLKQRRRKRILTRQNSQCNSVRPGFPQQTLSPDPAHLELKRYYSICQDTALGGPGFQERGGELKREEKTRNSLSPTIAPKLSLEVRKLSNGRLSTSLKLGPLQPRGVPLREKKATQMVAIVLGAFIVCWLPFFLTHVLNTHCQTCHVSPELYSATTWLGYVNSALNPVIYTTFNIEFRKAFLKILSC
Further: assay procedure not described here.

C[C@@H]1C[C@H]2[C@@H]3C[C@H](F)C4=CC(=O)C=C[C@]4(C)[C@@]3(F)[C@@H](O)C[C@]2(C)[C@@]1(O)C(=O)COC(=O)C(C)(C)C [FLUMETHASONE PIVALATE]
AC50 (Androgen receptor): 1.4 µM | AC50 [1]: > 30 µM | AC50 [2]: > 30 µM

CC(C)Cc1ccc(C(C)C(=O)NO)cc1 (stereo unspecified) [IBUPROXAM]
AC50 (Androgen receptor): > 30 µM | AC50 [1]: > 30 µM | AC50 [2]: > 30 µM

CS(=O)(=O)Nc1cc2occ(NC=O)c(=O)c2cc1Oc1ccccc1 [IGURATIMOD]
AC50 (Adenosine receptor A3): > 30 µM | AC50 (Androgen receptor): > 30 µM | AC50 [1]: > 30 µM | AC50 [2]: > 30 µM | AC50 (Histamine H1 receptor): > 30 µM | AC50 (Melanocortin receptor 3): > 30 µM | AC50 (D(3) dopamine receptor): > 30 µM

CCN(CC)CCNc1ccc(C)c2sc3ccccc3c(=O)c12 [LUCANTHONE]
AC50 (Androgen receptor): > 30 µM | AC50 [1]: > 30 µM | AC50 [2]: > 30 µM

CC(C(=O)O)c1ccc2c(c1)Cc1cccnc1O2 (stereo unspecified) [PRANOPROFEN]
AC50 (Androgen receptor): > 30 µM | AC50 [1]: > 30 µM | AC50 [2]: > 30 µM

CCO[C@@H](Cc1ccc(OCCn2c(C)ccc2-c2ccc(SC)cc2)cc1)C(=O)O [SAROGLITAZAR]
AC50 (Androgen receptor): > 30 µM | AC50 [1]: 18.7 µM | AC50 [2]: > 3 µM

CN1CCC2=C(C1)c1ccccc1Cc1ccccc12 [SETIPTILINE]
AC50 (Androgen receptor): > 30 µM | AC50 [1]: > 30 µM | AC50 [2]: > 30 µM

COc1ccc(CCC(C)NCC(O)c2ccc(O)c([S+](C)[O-])c2)cc1 (stereo unspecified) [SULFINALOL]
AC50 (Androgen receptor): > 30 µM | AC50 [1]: > 30 µM | AC50 [2]: > 30 µM

C[C@@H]1O[C@@H](OC[C@H]2O[C@@H](Oc3c(-c4ccc(OCCO)c(OCCO)c4)oc4cc(OCCO)cc(O)c4c3=O)[C@H](O)[C@@H](O)[C@@H]2O)[C@H](O)[C@H](O)[C@H]1O [TROXERUTIN]
AC50 (Androgen receptor): > 30 µM | AC50 [1]: > 30 µM | AC50 [2]: > 30 µM
